# Results taken from publication PMC11593465, “Na^+ Translocation Dominates over H^+-Translocation in the Membrane Pyrophosphatase with Dual Transport Specificity” (International Journal of Molecular Sciences, 2024).
# T1: Dh-mPPase (H+-translocating mPPase of Desulfitobacterium hafniense) (Desulfitobacterium hafniense, UniProt B8FXV7)
# T1 construct: gene hppA; recombinant, expressed in E. coli C41(DE3), in inverted membrane vesicles; homodimer of approx. 70-kDa subunits
# T1 sequence (B8FXV7 1-671): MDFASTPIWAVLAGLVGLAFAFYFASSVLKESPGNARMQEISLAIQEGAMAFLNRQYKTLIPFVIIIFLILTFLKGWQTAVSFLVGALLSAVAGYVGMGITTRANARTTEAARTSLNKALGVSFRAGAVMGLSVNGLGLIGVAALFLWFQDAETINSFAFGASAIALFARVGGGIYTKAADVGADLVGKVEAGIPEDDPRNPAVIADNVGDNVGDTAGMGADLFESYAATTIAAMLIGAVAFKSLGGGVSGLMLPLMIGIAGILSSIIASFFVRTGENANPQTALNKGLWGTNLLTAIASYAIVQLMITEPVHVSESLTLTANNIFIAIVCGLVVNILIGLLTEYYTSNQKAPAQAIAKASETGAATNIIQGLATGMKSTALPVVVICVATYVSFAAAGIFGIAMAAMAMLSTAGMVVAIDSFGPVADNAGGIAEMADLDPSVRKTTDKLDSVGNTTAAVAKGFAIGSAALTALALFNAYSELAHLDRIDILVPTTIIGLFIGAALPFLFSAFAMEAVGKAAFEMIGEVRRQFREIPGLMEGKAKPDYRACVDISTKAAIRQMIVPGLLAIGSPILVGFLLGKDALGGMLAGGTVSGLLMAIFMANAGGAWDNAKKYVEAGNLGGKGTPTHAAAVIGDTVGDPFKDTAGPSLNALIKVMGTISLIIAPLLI
# B1: Bv-mPPase (Bacteroides vulgatus Na+,H+-translocating mPPase) (Phocaeicola vulgatus ATCC 8482) (protein)
# chain: METYLFWIVPIASLLALVLAWYFYKQMMLESEGTPTMEKIASYVRQGAMSYLKQQYKVVGLVFLGLVILFSIMAYGFNLQNPWVPIAFLTGGFFSGLSGFLGMKTATYASARTANAAQHSLNKGLRVAFRSGAVMGLVVVGLGLLDISFWYILLDYCIPTDALNPSAKLCVITTTMLTFGMGASTQALFARVGGGIYTKAADVGADLVGKVEAGIPEDDPRNPATIADNVGDNVGDVAGMGADLYESYCGSILATAALGAAAFIGSDDTVMQFKAVIAPMLIAAVGIVLSIIGIFAVRTKENAGMKELLGSLATGTNLSSVLIVVATFLILWALGLENWVNISFAVVVGLIVGIVIGRSTEYYTSQSYKPTQRLAESGKTGPATVIISGIGLGMVSTTIPVLAVVTGIILSYWLASGFDFANISMGLYGIGIAAVGMLSTLGITLATDAYGPIADNAGGNAEMSGLGKEVRKRTDALDSLGNTTAATGKGFAIGSAALTGLALLASYVEEIRIGLTRLGQTILELPNGITVDVHNASFTDYMLYYDVTLMNPKVLSGMFLGSMMAFLFCGLTMNAVGRAAAHMVEEVRRQFREIKGILTGEAEPDYARCVQISTKGAQREMVFPSLLAIIAPIATGLIFGVPGVIGLLIGGLSSGFVLAIFMANAGGAWDNAKKFIEEGNFGGKGSEVHKATVTGDTVGDPFKDTSGPSLNILIKLMSMVAIVMAGLTVAWSLF
# notes: recombinant, expressed in E. coli C41(DE3), in inverted membrane vesicles; homodimer of approx. 70-kDa subunits; EC 7.1.3.1
# Key:
# [1] = molecular target: T2, Da-mPPase (Na+-translocating mPPase of Desulfuromonas acetoxidans) (Desulfuromonas acetoxidans, UniProt Q1JY39); assay: PPi hydrolysis (continuous Pi assay) and pyranine Na+ transport assay, membrane vesicles; format: biochemical; details: 150 µM PPi, 5 mM MgSO4, 5 mM Na2SO4, 25 mM K2SO4, 100 mM Mops-KOH pH 7.2
# T2 construct: gene hppA; recombinant, expressed in E. coli C41(DE3), in inverted membrane vesicles; homodimer of approx. 70-kDa subunits
# T2 sequence (Q1JY39 1-668): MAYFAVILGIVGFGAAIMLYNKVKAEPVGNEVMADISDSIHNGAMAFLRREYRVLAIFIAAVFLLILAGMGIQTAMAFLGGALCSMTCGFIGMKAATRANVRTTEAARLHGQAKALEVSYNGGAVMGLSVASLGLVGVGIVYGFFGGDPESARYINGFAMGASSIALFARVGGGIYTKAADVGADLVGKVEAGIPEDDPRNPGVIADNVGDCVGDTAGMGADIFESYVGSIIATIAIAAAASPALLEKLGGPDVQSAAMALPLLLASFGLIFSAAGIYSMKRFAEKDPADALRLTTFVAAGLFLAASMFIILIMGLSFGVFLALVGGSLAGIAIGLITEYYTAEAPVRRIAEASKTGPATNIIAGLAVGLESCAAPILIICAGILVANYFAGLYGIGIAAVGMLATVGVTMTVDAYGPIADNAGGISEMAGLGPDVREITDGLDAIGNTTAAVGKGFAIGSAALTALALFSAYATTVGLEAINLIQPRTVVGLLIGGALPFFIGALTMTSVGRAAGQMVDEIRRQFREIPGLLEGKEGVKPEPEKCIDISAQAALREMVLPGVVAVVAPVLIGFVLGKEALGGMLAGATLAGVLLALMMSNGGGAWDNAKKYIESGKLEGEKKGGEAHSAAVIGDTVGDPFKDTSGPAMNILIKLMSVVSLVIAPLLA
# [2] = molecular target: T1, Dh-mPPase (H+-translocating mPPase of Desulfitobacterium hafniense); assay: PPi hydrolysis (continuous Pi assay) and pyranine H+ transport assay, membrane vesicles; format: biochemical; details: 150 µM PPi, 5 mM MgSO4, 5 mM Na2SO4, 25 mM K2SO4, 100 mM Mops-KOH pH 7.2
# [3] = substrate: O=P(O)(O)OP(=O)(O)O; assay: cells, lysate or membranes; format: biochemical, Phocaeicola vulgatus; details: total PPi, first (stronger) of two sites in the dimer, macroscopic constant, 4.8 mM free Mg2+, 10 mM Na+ (5 mM Na2SO4), 25 mM K2SO4, 100 mM Mops-KOH pH 7.2, 25 °C
Molecule,"PPi hydrolysis (continuous Pi assay) and pyranine Na+ transport assay, membrane [1]","PPi hydrolysis (continuous Pi assay) and pyranine H+ transport assay, membrane v [2]",Km [3]
O=P(O)(O)OP(=O)(O)O [PPi],Na^+-translocating Da-mPPase caused monensin-sensitive alkalinization of the vesicle lumen in response to PPi addition,the PPi addition to Dh-mPPase-containing vesicles progressively decreased pyranine fluorescence,
B1,,,15 ± 1 µM
